Data taken from patent US20130281544A1, “HEPATOPROTECTANT ACTIVITY OF GARCINOL” (priority 2010, published 2013).
Marks after values point to notes of the source that are not given here.

Test system: alcohol (Ethyl alcohol) induced hepatotoxic animal models
Assay: Serum ALT, AST, ALP and bilirubin in alcohol (ethyl alcohol) induced hepatotoxic animal models
Format: in vivo, Male Wistar Rats
Conditions: EtOH; for ALP percent change / ALT percent change / AST percent change / Bilirubin percent change / ALP / ALT / AST / Bilirubin: serum; for ALP / ALT / AST / Bilirubin: Mean ± SE
Procedure: Doses of Garcinol (GC) used for the study: 1.25, 2.5, 5, 10 mg/kg p.o.
Standard drug: Silymarin (50 mg/kg) p.o.
Male Wistar rats, weighing 180-200 g, were given 0.5-0.6 ml ethanol orally. […] All rats had regular standard rat chow available throughout the 6-week period. Rats were weighted three times per week. [Guangjin Yuan, Zuojiong Gong *, Xiaorong Zhou, Pin Zhang, Xiaomei Sun and Xi Li. Epigallocatechin-3-Gallate Ameliorates Alcohol-Induced Liver Injury in Rats. Int. J. Mol. Sci. 2006, 7, 204-219]. Blood was collected from the retro-orbital plexus of experimental animals and no anti-coagulant was added. Blood was made to stand at room temperature for 1 hour. It was then centrifuged and clear serum was separated. The serum was then stored for analysis. Reference: (Magari et al., 2004).
(ASPARTATE AMINOTRANSFERASE and ALANINA AMINOTRANSFERASE), Reference: Ritman S, Frankel S, (1957). A colorimetric method for the determination of serum glutamic oxaloacetic and glutamic pyruvic transaminases. American Journal of Clinical Pathology; 28: 56-63.
0.2 ml of serum, collected from test and control samples, was mixed with 1.0 ml of buffer solution and incubated for 60 min at 37° C. in a water bath. After the addition of 1.0 ml of chromogen solution, the samples were kept at room temperature for 20 minutes for the reaction to proceed and 10 ml NaOH was added. The optical density was red at 546 nm after 5 min. To the blank, serum was added after the addition of chromogen solution.
(ALKALINE PHOSPHATASE), Reference: Klaus Walter and Schutt C. (1974). Acid and alkaline phosphatase in serum. In: Methods of Enzymatic Analysis. Eds. Hans Ulrich Bergmeyer, Verlag ChemieWeinheim, Academic press, Inc. New York, 2nd Edition, Vol. 2, pp. 855-64.
Alkaline phosphatase activity measurement is based on the ability of the enzyme to hydrolyze p-nitrophenol phosphate under alkaline conditions. The cleaved product p-nitrophenol is yellow in alkaline solution and is measured at 400-420 nm (Klaus and Schutt, 1974). 2.0 ml of buffered substrate was taken in the tubes ‘Test’ ‘Control’ and ‘Blank’ followed by addition of serum and distilled water (0.1 ml) in ‘Test’ and ‘Blank’ respectively and incubated in a water bath for 30 minutes at 25° C. After incubation sodium hydroxide was added (0.25 N, 2 ml) to all the tubes, which was followed by serum (0.1 ml) to the tubes marked ‘Control’. The yellow colour formed was measured spectrophotometrically against blank at 410 nm.
[BILIRUBIN (BRBN)], Reference: Malloy H T and Evelyn K A (1937). The determination of bilirubin with photoelectric colorimeter. Journal of Biological Chemistry 119: 481-490.
Serum bilirubin was estimated by the method of Malloy and Evelyn (1937). In the two sets of test tubes marked ‘Test’ and ‘Control’, serum (0.2 ml) and distilled water (1.8 ml) were added. To the tubes marked ‘Test’ and ‘Standard’ diazo reagent (0.5 ml) was added. To the test tubes marked ‘Control’ and ‘Blank’ diazo blank (0.5 ml) was added. Finally methanol (2.5 ml) was added into each test tube. The tubes were mixed and allowed to stand for 30 minutes in dark. The tubes were read after 10 minutes at 540 nm.

In the case of `C=C(C)[C@@H](CC=C(C)C)C[C@@]12C[C@@H](CC=C(C)C)C(C)(C)[C@@](CC=C(C)C)(C(=O)C(C(=O)c3ccc(O)c(O)c3)=C1O)C2=O` [Garcinol], the “Average Protection” value (1.25 mg/kg p.o.) is reported as 17.32%, the “Average Protection” value (2.50 mg/kg p.o.) is reported as 29.82% and the “Average Protection” value (5.00 mg/kg p.o.) is reported as 39.39%. The “Average Protection” value (10.00 mg/kg p.o.) was 40.20%, the ALP percent change (1.25 mg/kg p.o.) was “(14.91) %” and the ALT percent change (1.25 mg/kg p.o.) was “(27.45) %”. For the same compound, the AST percent change (1.25 mg/kg p.o.) was “(20.20) %”, the Bilirubin percent change (1.25 mg/kg p.o.) was “(6.73) %” and the ALP (1.25 mg/kg p.o.) was 88.68 ± 8.58 μmol min/lt. The ALT (1.25 mg/kg p.o.) was 1320.40 ± 52.20* μmol min/lt, the AST (1.25 mg/kg p.o.) was 858.80 ± 32.64 μmol min/lt and the Bilirubin (1.25 mg/kg p.o.) was 1.94 ± 0.02 mg %. The ALP percent change (2.50 mg/kg p.o.) was “(26.96) %”, the ALT percent change (2.50 mg/kg p.o.) was “(40.63) %” and the AST percent change (2.50 mg/kg p.o.) was “(32.47) %”. For the same compound, the Bilirubin percent change (2.50 mg/kg p.o.) was “(19.23) %”, the ALP (2.50 mg/kg p.o.) was 76.12 ± 4.88* μmol min/lt and the ALT (2.50 mg/kg p.o.) was 1080.50 ± 48.56** μmol min/lt. The AST (2.50 mg/kg p.o.) was 726.78 ± 46.50* μmol min/lt, the Bilirubin (2.50 mg/kg p.o.) was 1.68 ± 0.04* mg % and the ALP percent change (5.00 mg/kg p.o.) was “(34.44) %”. For the same compound, the ALT percent change (5.00 mg/kg p.o.) was “(51.83) %”, the AST percent change (5.00 mg/kg p.o.) was “(39.58) %” and the Bilirubin percent change (5.00 mg/kg p.o.) was “(31.73) %”. For the same compound, the ALP (5.00 mg/kg p.o.) was 68.32 ± 5.60** μmol min/lt, the ALT (5.00 mg/kg p.o.) was 876.58 ± 76.80** μmol min/lt and the AST (5.00 mg/kg p.o.) was 650.26 ± 56.20** μmol min/lt. For the same compound, the Bilirubin (5.00 mg/kg p.o.) was 1.42 ± 0.06** mg %, the ALP percent change (10.00 mg/kg p.o.) was “(33.79) %” and the ALT percent change (10.00 mg/kg p.o.) was “(52.15) %”. For the same compound, the AST percent change (10.00 mg/kg p.o.) was “(41.23) %”, the Bilirubin percent change (10.00 mg/kg p.o.) was “(33.65) %” and the ALP (10.00 mg/kg p.o.) was 69.00 ± 4.82** μmol min/lt. The ALT (10.00 mg/kg p.o.) was 870.80 ± 48.40** μmol min/lt, the AST (10.00 mg/kg p.o.) was 632.48 ± 44.56** μmol min/lt and the Bilirubin (10.00 mg/kg p.o.) was 1.39 ± 0.04** mg %.
